{
  "source": "ChEMBL document CHEMBL3758147",
  "about": "“1,9-seco-Bicyclic Polyprenylated Acylphloroglucinols from Hypericum uralum” (J Nat Prod, 2015)",
  "data": [
    {"molecular_target": "Acetylcholinesterase (Homo sapiens, UniProt P22303)", "sequence (P22303 whole entry)": "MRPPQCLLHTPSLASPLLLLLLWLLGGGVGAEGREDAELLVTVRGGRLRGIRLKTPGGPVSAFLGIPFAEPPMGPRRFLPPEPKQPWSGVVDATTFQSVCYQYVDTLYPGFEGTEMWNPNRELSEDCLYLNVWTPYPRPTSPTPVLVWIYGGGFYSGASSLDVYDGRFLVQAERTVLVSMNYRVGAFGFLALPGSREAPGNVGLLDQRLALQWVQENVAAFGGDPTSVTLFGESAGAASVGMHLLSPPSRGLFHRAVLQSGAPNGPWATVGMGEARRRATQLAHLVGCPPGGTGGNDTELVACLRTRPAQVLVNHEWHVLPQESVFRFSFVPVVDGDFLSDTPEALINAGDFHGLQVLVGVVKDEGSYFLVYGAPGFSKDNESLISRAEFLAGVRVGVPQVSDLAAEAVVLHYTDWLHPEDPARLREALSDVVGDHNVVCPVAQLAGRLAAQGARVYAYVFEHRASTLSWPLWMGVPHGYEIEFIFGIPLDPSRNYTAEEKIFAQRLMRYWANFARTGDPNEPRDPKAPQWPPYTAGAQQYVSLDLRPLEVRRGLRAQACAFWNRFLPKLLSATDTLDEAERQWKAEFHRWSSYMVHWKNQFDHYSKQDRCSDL", "assay": "(§1) Inhibition of human erythrocyte AChE using acetylthiocholine as substrate assessed as substrate hydrolysis preincubated for 20 mins followed by substrate addition measured after 30 mins by Ellman's assay", "conditions": "not given; call rule not given here", "values": [
      {"molecule": "CC(C)=CCC[C@]1(C)[C@@H](CC=C(C)C)C[C@H](CC=C(C)C)C(=O)[C@](O)(CC=C(C)C)C(=O)[C@H]1C(=O)C(C)C", "IC50": "Not Active"},
      {"molecule": "CC(C)=CCC/C(C)=C/C[C@]12C[C@@H](CC=C(C)C)C(C)(C)[C@H](C(=O)C(C)C)C(=O)[C@](CC=C(C)C)(OC1=O)C2=O", "IC50": "Not Active"},
      {"molecule": "CC(C)=CC[C@H]1C[C@@]2(CC=C(C)C)C(=O)C3(CC=C(C)C)CC14C[C@@H](C=C(C)C)C(C(=O)c1ccccc1)(C3=O)C42O", "IC50": "Not Active"},
      {"molecule": "CCC(C)C(=O)[C@@H]1C(=O)[C@]2(CC=C(C)C)OC(=O)[C@](CC=C(C)C)(C[C@H](CC=C(C)C)[C@@]1(C)C/C=C/C(C)(C)OO)C2=O", "note": "(some centres not stated)", "IC50": "Not Active"},
      {"molecule": "CCC(C)C(=O)[C@@H]1C(=O)[C@]2(CC=C(C)C)OC(=O)[C@](C/C=C(\\C)CCC=C(C)C)(C[C@@H](CC=C(C)C)C1(C)C)C2=O", "note": "(some centres not stated)", "IC50": "Not Active"},
      {"molecule": "CC(C)=CC[C@H]1C[C@@]2(CC=C(C)C)C(=O)O[C@](CC=C(C)C)(C2=O)C(=O)[C@]23C(=O)c4ccccc4C(C)(C)[C@H]2CC[C@]13C", "IC50": "Not Active"},
      {"molecule": "CC(C)=CC[C@H]1C[C@@]2(CC=C(C)C)C(=O)O[C@@](CC=C(C)C)(C(=O)[C@@H](C(=O)C(C)C)[C@]1(C)C/C=C/C(C)(C)OO)C2=O", "IC50": "Not Active"},
      {"molecule": "CC(C)=CC[C@H]1C[C@@]23C[C@H]4C(C)(C)c5ccccc5C(=O)[C@]45C(=O)C(CC=C(C)C)(C[C@@]1(C/C=C/C(C)(C)O)C25O)C3=O", "IC50": "Not Active"},
      {"molecule": "CC(C)=CCC[C@]1(C)[C@@H](CC=C(C)C)C[C@@]2(CC=C(C)C)C(=O)O[C@@](CC=C(C)C)(C(=O)[C@H]1C(=O)C(C)C)C2=O", "IC50": "Not Active"},
      {"molecule": "CC(C)=CCC1=C2OC(C)(C)[C@H](O)[C@H]3/C=C(/C)[C@@H](CC=C(C)C)C[C@](CC=C(C)C)(C1=O)C(=O)[C@]23C(=O)c1ccccc1", "IC50": "Not Active"}
    ]},
    {"molecular_target": "Acetylcholinesterase (Homo sapiens, UniProt P22303)", "assay": "as §1", "conditions": "read-out: IC50", "units": {"IC50": "µM"}, "values": [
      {"molecule": "CC(C)=CC[C@H]1C[C@@]2(CC=C(C)C)C(=O)O[C@@](CC=C(C)C)(C(=O)[C@@H](C(=O)C(C)C)[C@]1(C)C/C=C/C(C)(C)O)C2=O", "IC50": 9.6},
      {"molecule": "CCC(C)C(=O)[C@@H]1C(=O)[C@]2(CC=C(C)C)OC(=O)[C@](CC=C(C)C)(C[C@H](CC=C(C)C)[C@@]1(C)C/C=C/C(C)(C)O)C2=O", "note": "(some centres not stated)", "IC50": 7.1}
    ]}
  ]
}
